These results are taken from patent US9163032B2, “Esters of DCPLA and methods of treatment using the same” (Blanchette Rockefeller Neurosciences Institute, priority 2011, dated 2015).

One assay addresses PKC-α (Homo sapiens, UniProt P17252). Briefly: PKC activation assay with purified PKC-α isozyme. It counts as biochemical. On the procedure: (§1) For measurement of PKC activation by DCPLA-ME, activation of recombinant PKC-α, PKC-ε, and PKC-δ was evaluated. DCPLA-ME induced activation was measured in the absence of diacylglycerol (DAG) and phosphatidylserine (PS) as described earlier. See Nelson, T. J. et al., J. Biol. Chem., 2009, 284: 34514-34521, and Kanno, T. et al., J. Cell Physiol., 2009, 221: 183-188. Individual enzymes were incubated for 15 min at 37° C. in the presence of 10 μM histones, 4.89 mM CaCl2, 10 mM MgCl2, 20 mM HEPES (pH 7.4), 0.8 mM EDTA, 4 mM EGTA, 4% glycerol, 8 μg/ml aprotinin, 8 μg/ml leupeptin, 2 mM benzamidine, and 0.5 μCi of [γ-^32P]ATP. Purified PKC-α, PKC-ε and PKC-δ were preincubated with DCPLA-ME for 5 min at room temperature. [^32P]-Phosphoprotein formation was measured by adsorption onto phosphocellulose.
To measure PKC, 10 μl of cell homogenate or purified PKC isozyme was incubated for 15 min at 37° C. in the presence of 10 μM histones, 4.89 mM CaCl2, 1.2 μg/μl phosphatidyl-L-serine, 0.18 μg/μl 1,2-dioctanoyl-sn-glycerol, 10 mM MgCl2, 20 mM HEPES (pH 7.4), 0.8 mM EDTA, 4 mM EGTA, 4% glycerol, 8 μg/ml aprotinin, 8 μg/ml leupeptin, and 2 mM benzamidine. [γ32P]ATP (0.5 μCi) was added and 32P-phosphoprotein formation was measured by adsorption onto phosphocellulose as described previously. […]
PKC activity of each compound was measured in the absence of diacylglycerol and phosphatidyl-L-serine and PKC-δ and PKC-ε were measured in the absence of added EGTA and CaCl2, as described by Kanno et al., J. Lipid Res., 2006, 47: 1146-1156. […] To determine their PKC isozyme specificity, the compounds were pre-incubated with purified isoforms of PKC for five minutes and the PKC activity was measured radiometrically.
(§2) The activation and PKC isozyme specificity of DCPLA-ethyl ester was measured following the procedures in Example 1(B) and (C), except that 9 ng of the purified isozyme was used and it was pre-incubated for 5 minutes at room temperature (FIG. 3). PKC-ε activation by DCPLA-tert-butyl ester and DCPLA-retinyl ester was measured in the same manner as DCPLA-ethyl ester (FIG. 3).

Assay [1] deals with T1, PKC-ε (Homo sapiens, UniProt Q02156).
T1 sequence (Q02156 1-737): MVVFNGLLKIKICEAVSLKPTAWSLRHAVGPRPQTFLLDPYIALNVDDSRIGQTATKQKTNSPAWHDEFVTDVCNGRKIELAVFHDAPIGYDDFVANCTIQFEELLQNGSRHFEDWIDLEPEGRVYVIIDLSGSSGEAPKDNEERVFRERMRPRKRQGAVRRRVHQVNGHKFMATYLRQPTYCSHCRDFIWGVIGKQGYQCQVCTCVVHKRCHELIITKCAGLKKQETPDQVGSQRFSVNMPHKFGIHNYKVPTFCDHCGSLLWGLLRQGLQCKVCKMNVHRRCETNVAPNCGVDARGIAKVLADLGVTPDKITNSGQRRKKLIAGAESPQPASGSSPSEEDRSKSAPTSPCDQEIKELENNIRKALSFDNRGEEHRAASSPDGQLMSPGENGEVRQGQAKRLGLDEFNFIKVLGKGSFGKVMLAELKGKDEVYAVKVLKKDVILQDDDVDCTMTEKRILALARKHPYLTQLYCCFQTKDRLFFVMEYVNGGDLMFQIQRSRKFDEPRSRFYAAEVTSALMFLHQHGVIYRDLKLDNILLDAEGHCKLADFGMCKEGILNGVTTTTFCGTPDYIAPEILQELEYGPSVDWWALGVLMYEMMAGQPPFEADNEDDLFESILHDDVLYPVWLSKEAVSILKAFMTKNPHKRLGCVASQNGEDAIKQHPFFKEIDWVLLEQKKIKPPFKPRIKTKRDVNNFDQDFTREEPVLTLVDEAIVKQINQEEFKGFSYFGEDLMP
Kind of assay: PKC activation assay with purified PKC-ε isozyme (32P-phosphoprotein formation). The conditions noted are these: for Emax: % of control of PKCε at maximum; for Specificity ε/α: Activation of PKC-ε ÷ activation or inhibition of PKCα at 3xEC50; for concentration of maximal activation: FIG. 2, FIG. 4; for EC50: lowest concentration that activates by 50% of maximum activation; for PKC-ε activation at its peak: maximum, FIG. 1, 2, 4. The assay is classed as biochemical. On the procedure:
as §1
To measure PKC, 10 μl of cell homogenate or purified PKC isozyme was incubated for 15 min at 37° C. in the presence of 10 μM histones, 4.89 mM CaCl2, 1.2 μg/μl phosphatidyl-L-serine, 0.18 μg/μl 1,2-dioctanoyl-sn-glycerol, 10 mM MgCl2, 20 mM HEPES (pH 7.4), 0.8 mM EDTA, 4 mM EGTA, 4% glycerol, 8 μg/ml aprotinin, 8 μg/ml leupeptin, and 2 mM benzamidine. [γ32P]ATP (0.5 μCi) was added and 32P-phosphoprotein formation was measured by adsorption onto phosphocellulose as described previously. See Nelson et al., J. Neurochemistry, 1995, 65: 2350-2357.
PKC activity of each compound was measured in the absence of diacylglycerol and phosphatidyl-L-serine and PKC-δ and PKC-ε were measured in the absence of added EGTA and CaCl2, as described by Kanno et al., J. Lipid Res., 2006, 47: 1146-1156. Low concentrations of Ca^2+ are needed because high Ca^2+ interacts with the PKC phosphatidylserine binding site and prevents activation. […] To determine their PKC isozyme specificity, the compounds were pre-incubated with purified isoforms of PKC for five minutes and the PKC activity was measured radiometrically.
as §2
The EC50 values, PKC specificity, and activation for a select number of DCPLA esters was determined (see Table 1). EC50 values were determined by measuring the lowest concentration that activates by 50% of maximum activation. […] The specificity and activation of PKC by the various esters of DCPLA were determined from the measurements of activation of PKC isozymes.

A further assay addresses PKC-δ (Homo sapiens, UniProt Q05655). Kind of assay: PKC activation assay with purified PKC-δ isozyme. It counts as biochemical. On the procedure:
as §1
To measure PKC, 10 μl of cell homogenate or purified PKC isozyme was incubated for 15 min at 37° C. in the presence of 10 μM histones, 4.89 mM CaCl2, 1.2 μg/μl phosphatidyl-L-serine, 0.18 μg/μl 1,2-dioctanoyl-sn-glycerol, 10 mM MgCl2, 20 mM HEPES (pH 7.4), 0.8 mM EDTA, 4 mM EGTA, 4% glycerol, 8 μg/ml aprotinin, 8 μg/ml leupeptin, and 2 mM benzamidine. [γ32P]ATP (0.5 μCi) was added and 32P-phosphoprotein formation was measured by adsorption onto phosphocellulose as described previously. See Nelson et al., J. Neurochemistry, 1995, 65: 2350-2357. […]

The test system of assay [2] is PKC-ε. Kind of assay: PKC-ε level in primary neurons (immunofluorescence, Western Blot). It counts as cell-based, rat. The following applies: 5 μM inhibitor, ASPD + DCPLA-ME. On the procedure: Cells were grown in two chambered slides (Nunc, USA) at low density. For immunofluorescence staining, the cells were washed with PBS (pH 7.4) and fixed with 4% paraformaldehyde for 4 min. Following fixation, the cells were blocked and permeabilized with 5% serum and 0.3% Triton X-100 in 1×PBS for 30 min. Cells were washed three times with 1×PBS and incubated with primary antibodies for 1 hr at 1:100 dilution. After the incubation, the slides were again washed three times in 1×PBS and were incubated with the FITC anti-mouse IgG and Rhodamine anti-rabbit IgG for 1 hr at 1:400 dilution. The cells were further washed and stained with DAPI (4′,6-diamidino-2′-phenylindole, dihydrochloride) (Thermo Scientific, USA) to stain the nucleus. Finally, the slides were washed and mounted in Pro Long Gold antifade mounting solution (Invitrogen, USA) and were viewed under a LSM 710 Meta confocal microscope (Zeiss) at 350 nm, 490 nm, and 540 nm excitation and 470 nm, 525 nm, and 625 nm emission for DAPI, FITC, and Rhodamine respectively. Six individual fields at 63× oil lens magnification were analyzed for the mean fluorescence intensity (MFI) in each channel.
Cells were harvested in homogenizing buffer containing 10 mM Tris-Cl (pH 7.4), 1 mM PMSF (phenylmethylsulfonyl fluoride), 1 mM EGTA, 1 mM EDTA, 50 mM NaF, and 20 μM leupeptin, and were lysed by sonication. The homogenate was centrifuged at 100,000×g for 15 min at 4° C. to obtain the cytosolic fraction (supernatant) and membrane (pellet). The pellet was resuspended in the homogenizing buffer by sonication. […] Protein concentration was measured using the Coomassie Plus (Bradford) Protein Assay kit (Pierce, USA). Following quantification, 20 μg of protein from each sample was subjected to SDS-PAGE analysis in a 4-20% gradient Tris-Glycine gel (Invitrogen, USA). […] The blot was imaged in an ImageQuant RT-ECL (GE Life Sciences, Piscataway, N.J.) and densitometric quantification was performed using IMAL software (Blanchette Rockefeller Neurosciences Institute, Morgantown, W. Va.). […]

Assay [3] concerns cultured primary rat hippocampal neurons. Kind of assay: Neuroprotection against ASPD induced toxicity, MTT assay, primary neurons. The assay is classed as cell-based. The conditions noted are these: added to the cells with DCPLA-ME, 50 nM ASPD. On the procedure: Viability of cells was measured by MTT assay. MTT (i.e., 3-(4,5-dimethylthiazol-2-yl)-2,5-diphenyltetrazolium bromide) is a tetrazolium salt that is cleaved to formazan by the succinate dehydrogenase, which is only active in viable cells. After solubilization of the formazan, the amount of dye can be quantified with a microplate reader at 570 nm along with a reference of 630 nm. For the MTT assay, 5×10^4 primary rat hippocampal neurons from 18-day-old embryonic Sprague-Dawley rat brains or SH-SY5Y cells were plated on each well of 24-well plates coated with poly-D-lysine. After treatment, the cells were washed with 1× PBS and were incubated with 200 μl of 1 mg/ml MTT solution (Sigma, USA) at 37° C. for 2 hr. Then the MTT-solution was removed and the cells were lysed with 200 μl isopropanol containing 0.04 M HCl and […] for 10 min. Finally, the reading was taken at 570 nm and 630 nm. All the samples were done in triplicate and the data were represented as the percentage of control.
Bryostatin 1, DCPLA, and DCPLA-ME were tested against ASPD-induced cytotoxicity to determine their neuroprotective efficacy.

Where two headings read alike, the source gives them in different places.

PKC-δ, sequence (Q05655 whole entry): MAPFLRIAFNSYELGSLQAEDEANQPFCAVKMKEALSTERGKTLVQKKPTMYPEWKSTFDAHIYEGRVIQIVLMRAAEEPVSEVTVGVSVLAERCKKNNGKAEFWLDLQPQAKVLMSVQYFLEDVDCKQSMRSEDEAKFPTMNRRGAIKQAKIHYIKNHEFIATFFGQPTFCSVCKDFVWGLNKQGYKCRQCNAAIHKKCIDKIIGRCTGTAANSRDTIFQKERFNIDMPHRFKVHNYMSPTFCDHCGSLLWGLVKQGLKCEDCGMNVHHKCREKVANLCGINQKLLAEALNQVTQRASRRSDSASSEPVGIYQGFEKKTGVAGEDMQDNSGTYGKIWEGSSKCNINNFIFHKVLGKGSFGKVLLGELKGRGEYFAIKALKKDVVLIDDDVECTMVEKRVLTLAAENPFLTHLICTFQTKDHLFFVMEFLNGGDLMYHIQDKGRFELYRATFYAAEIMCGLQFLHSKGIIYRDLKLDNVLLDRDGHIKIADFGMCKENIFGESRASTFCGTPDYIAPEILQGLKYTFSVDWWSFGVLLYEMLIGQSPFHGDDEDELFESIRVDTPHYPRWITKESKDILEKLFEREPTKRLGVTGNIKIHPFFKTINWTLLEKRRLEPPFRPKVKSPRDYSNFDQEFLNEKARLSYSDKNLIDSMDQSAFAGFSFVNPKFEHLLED

Regarding `CCCCC/C=C\C/C=C\CCCCCCCC(=O)O[C@H]1CC[C@@]2(C)C(=CC[C@H]3[C@@H]4CC[C@H]([C@H](C)CCCC(C)C)[C@@]4(C)CC[C@@H]32)C1` [Cholesteryl linoleate, cholesteryl linoleate, reference compound], the PKC-α activation on PKC-α (FIG. 4) is 20%. The “PKC-ε activation” value at PKC-ε [1] (FIG. 4) was “little or no activation”.

As for `CCCCCC1CC1CC1CC1CCCCCCCC(=O)OC(C)C` (centres unmarked) [DCPLA-isopropyl ester], at PKC-ε [1], the maximal effect (Emax) turned out to be 140%, the “Specificity ε/α” value is on record as 1.4, the “concentration of maximal activation” value came to 10 nM and a half-maximal effect (EC50) was put at 0.1 nM. Besides, the “PKC-ε activation at its peak” value on PKC-ε [1] is reported as “up to 40 % of control”. At PKC-δ, the “effect on PKC-δ” value is “only slightly activated”.

As to EAVSLKPT, in the assay with PKC-ε [2], the “effect on DCPLA-ME protection of PKC-ε protein level” value is on record as “completely blocked”. Also, in assay [3], the “effect on DCPLA-ME neuroprotection” value was “blocked DCPLA-ME's protective effect”.

As to `CCCCCC1CC1CC1CC1CCCCCCCC(=O)OC1CC[C@@]2(C)C(=CC[C@H]3[C@H]4CC[C@H]([C@H](C)CCCC(C)C)[C@@]4(C)CC[C@H]32)C1` (some centres unmarked) [DCPLA-cholesteryl ester, DCPLA cholesteryl ester], the “effect on PKC-α” value on PKC-α is reported as “inhibited at all concentrations”. In addition, on PKC-ε [1], the “affinity for PKC-ε and PKC-δ” value is listed as “extremely high affinity”; the “form of activity vs. concentration response” value is “biphasic manner”; the maximum response (Emax) came out at 122%; the “Specificity ε/α” value was determined as 0.94. Also, on PKC-ε [1], the “concentration of maximal activation” value amounted to 0.01 nM, the EC50 is 0.005 nM and the “PKC-ε activation at its peak” value was “up to 130 % of control”. Moreover, at PKC-ε [1] (from concentration of maximal activity), the “potency relative to Bryostatin 1” value turned out to be 18 ×. Moreover, at PKC-ε [1] (listed as cholesteryl ester), the “form of activity vs. concentration response” value was “bimodal activation”.
